Read-outs that look alike come from different tables or passages of the source. A value given as a limit tells only on which side of the number the result lay.

Consider 16 compounds from patent US11737985B2 (priority 2013, dated 2023).

The conditions of data set [1]: in vivo; cited from earlier work.
The conditions of data set [2]: in vivo; cited from earlier work. This is another data set of the same source.
A further data set addresses T1, hNKCC1a (Homo sapiens, UniProt P55011).
T1 sequence (P55011 1-1212): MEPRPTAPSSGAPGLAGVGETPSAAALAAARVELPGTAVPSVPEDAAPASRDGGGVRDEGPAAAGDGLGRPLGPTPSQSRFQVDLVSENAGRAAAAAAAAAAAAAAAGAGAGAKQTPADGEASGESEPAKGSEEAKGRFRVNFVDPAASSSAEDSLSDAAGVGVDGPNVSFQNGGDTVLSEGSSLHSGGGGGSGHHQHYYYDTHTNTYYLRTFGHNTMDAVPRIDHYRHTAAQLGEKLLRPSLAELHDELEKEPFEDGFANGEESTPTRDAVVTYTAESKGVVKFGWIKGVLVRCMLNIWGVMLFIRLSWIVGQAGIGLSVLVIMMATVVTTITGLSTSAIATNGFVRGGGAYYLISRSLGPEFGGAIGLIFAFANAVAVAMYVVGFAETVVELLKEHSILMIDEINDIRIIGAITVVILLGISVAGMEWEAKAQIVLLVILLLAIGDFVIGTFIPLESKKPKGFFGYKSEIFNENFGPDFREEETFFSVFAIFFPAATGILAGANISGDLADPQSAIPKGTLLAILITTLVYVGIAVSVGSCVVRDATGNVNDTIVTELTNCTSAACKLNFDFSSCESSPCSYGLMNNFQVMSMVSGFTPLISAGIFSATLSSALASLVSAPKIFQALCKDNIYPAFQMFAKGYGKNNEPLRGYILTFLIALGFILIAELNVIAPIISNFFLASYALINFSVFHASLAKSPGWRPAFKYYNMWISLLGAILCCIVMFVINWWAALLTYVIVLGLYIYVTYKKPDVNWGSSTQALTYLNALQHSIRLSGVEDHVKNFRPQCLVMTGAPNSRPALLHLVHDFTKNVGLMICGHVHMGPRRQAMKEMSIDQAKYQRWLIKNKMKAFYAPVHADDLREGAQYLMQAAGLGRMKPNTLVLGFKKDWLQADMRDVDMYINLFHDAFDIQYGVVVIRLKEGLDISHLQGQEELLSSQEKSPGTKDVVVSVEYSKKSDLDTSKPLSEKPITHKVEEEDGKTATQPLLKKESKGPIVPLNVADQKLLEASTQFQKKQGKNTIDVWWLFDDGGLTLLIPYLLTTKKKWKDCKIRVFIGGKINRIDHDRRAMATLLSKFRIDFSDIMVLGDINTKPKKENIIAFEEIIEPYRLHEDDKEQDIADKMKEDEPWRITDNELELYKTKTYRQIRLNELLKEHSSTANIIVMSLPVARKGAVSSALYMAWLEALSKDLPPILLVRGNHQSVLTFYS
The following applies: cited from earlier work.

Another data set addresses T2, NKCC2 (Homo sapiens, UniProt Q13621).
T2 sequence (Q13621 1-1099): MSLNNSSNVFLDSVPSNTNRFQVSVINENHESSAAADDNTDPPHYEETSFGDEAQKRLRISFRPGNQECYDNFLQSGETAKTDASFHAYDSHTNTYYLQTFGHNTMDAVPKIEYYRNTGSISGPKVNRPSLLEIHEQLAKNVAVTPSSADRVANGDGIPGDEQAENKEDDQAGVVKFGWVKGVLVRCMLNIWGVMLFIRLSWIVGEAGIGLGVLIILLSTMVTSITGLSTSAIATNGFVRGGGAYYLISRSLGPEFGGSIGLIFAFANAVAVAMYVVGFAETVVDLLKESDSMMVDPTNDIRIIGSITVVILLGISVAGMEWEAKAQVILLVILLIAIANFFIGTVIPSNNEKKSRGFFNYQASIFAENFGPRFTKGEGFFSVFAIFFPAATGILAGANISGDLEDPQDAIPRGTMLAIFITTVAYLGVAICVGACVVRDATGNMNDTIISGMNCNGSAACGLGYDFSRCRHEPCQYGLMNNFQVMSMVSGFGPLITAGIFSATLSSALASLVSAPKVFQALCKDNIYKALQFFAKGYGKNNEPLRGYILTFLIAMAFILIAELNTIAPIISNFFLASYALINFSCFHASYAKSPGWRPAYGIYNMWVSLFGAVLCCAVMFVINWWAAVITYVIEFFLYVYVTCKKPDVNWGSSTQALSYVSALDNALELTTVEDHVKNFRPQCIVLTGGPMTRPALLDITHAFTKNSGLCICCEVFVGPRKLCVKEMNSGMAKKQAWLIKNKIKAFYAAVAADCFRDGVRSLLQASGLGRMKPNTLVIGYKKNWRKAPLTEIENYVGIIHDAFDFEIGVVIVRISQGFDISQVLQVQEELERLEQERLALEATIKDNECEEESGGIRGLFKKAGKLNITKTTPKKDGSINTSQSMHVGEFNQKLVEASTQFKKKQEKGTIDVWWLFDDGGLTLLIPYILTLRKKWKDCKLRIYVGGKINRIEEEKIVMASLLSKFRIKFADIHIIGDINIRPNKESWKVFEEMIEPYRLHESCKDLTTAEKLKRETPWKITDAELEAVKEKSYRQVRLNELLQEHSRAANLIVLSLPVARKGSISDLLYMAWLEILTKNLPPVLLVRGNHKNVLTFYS
The following applies: cited from earlier work.

A further data set has as its target T3, hNKCC1b (Homo sapiens, UniProt P55011).
T3 sequence (P55011 1-1196 isoform P55011-3): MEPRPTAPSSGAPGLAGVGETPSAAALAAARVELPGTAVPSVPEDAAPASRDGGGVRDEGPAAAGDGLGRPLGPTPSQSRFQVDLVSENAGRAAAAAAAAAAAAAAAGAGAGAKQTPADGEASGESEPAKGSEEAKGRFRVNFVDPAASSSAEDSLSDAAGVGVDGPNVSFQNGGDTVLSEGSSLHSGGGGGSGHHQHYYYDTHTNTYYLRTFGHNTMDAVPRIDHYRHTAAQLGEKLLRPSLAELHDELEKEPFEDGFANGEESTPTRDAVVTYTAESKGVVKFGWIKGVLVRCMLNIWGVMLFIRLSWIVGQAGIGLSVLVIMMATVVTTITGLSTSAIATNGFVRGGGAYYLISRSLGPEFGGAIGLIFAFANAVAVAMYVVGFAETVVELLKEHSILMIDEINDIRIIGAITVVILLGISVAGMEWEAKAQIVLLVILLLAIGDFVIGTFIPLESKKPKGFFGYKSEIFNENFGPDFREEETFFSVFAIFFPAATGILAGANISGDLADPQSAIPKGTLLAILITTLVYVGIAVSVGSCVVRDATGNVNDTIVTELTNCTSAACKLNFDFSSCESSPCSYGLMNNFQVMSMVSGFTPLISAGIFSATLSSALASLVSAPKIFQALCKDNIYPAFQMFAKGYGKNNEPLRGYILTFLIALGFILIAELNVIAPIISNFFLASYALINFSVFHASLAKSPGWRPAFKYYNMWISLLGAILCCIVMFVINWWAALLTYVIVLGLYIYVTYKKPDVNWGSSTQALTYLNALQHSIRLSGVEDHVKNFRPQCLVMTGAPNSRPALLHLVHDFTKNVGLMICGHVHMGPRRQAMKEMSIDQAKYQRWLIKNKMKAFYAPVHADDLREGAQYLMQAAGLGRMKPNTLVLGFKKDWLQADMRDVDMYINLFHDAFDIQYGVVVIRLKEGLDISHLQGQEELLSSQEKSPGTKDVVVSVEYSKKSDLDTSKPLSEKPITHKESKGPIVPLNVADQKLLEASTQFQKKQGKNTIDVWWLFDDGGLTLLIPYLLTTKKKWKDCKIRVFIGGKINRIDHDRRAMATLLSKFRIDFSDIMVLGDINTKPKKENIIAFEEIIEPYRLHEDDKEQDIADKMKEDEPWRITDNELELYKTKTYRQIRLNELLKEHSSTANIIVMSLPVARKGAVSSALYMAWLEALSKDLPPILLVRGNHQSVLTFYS
The following applies: cited from earlier work.

The nature of data set [3]: Cross-over trial dapagliflozin / bumetanide: weekly urinary excretion (Table 9). The following applies: for Ca^++ / Glucose / K^+ / Mg^++ / Na^+ / Urate: urine, Day 1-7. It is filed as in vivo, healthy volunteers.
For data set [4] the following is noted: cited from earlier work.
The conditions of data set [5]: during the remainder of the day after the dose, high salt intake; cited from earlier work.
For data set [6] the following is noted: 1 mg; cited from earlier work.
For data set [7] the following is noted: in vivo; cited from earlier work. This is another data set of the same source.

As usually defined, the Tmax is the time at which the peak concentration occurs. In the case of `CCc1ccc(Cc2ccc3c(c2)[C@]2(OC3)O[C@H](CO)[C@@H](O)[C@H](O)[C@H]2O)cc1` [Tofogliflozin], in data set [1], the Bioavailability is 98%, the T1/2 is listed as 5.5 h and the Tmax is 1.1 h.

In general, half-life refers to how long it takes for the measured level to halve. For `C[C@]12CCC(=O)C=C1C=C[C@@H]1[C@@H]2CC[C@@]2(C)[C@H]1CC[C@@]21CCC(=O)O1` [canrenone], the half-life result in data set [2] is on record as “more than 15 hours”.

By IC50 is commonly meant the concentration that gives 50% inhibition. Regarding `CCCCNc1cc(C(=O)O)cc(S(N)(=O)=O)c1Oc1ccccc1` [Bumetanide], the IC50 at hNKCC1a was 950 nM. Further, the IC50 at NKCC2 is 250 nM. In addition, the half-inhibitory concentration (IC50) on hNKCC1b is 840 nM. Also, the “greater natriuresis with bumetanide” value in data set [3] (given after one week of dapaglifozin therapy) is 36%. In addition, in data set [3], the “Ca^++” value worked out at 667 ± 54 mg-wk^−1, the Glucose is recorded as 0.3 ± 0.06 g-wk^−1, the “K^+” value was found to be 454 ± 32 mmol-wk^−1 and the “Mg^++” value stood at 613 ± 48 mg-wk^−1. Besides, in [3], the “Na^+” value was 669 ± 46 mmol-wk^−1 and the Urate worked out at 2249 ± 160 mg-wk^−1.

As for `CCOc1ccc(Cc2cc([C@@H]3O[C@H](CO)[C@@H](O)[C@H](O)[C@H]3O)ccc2Cl)cc1` [Dapagliflozin], in [1], the T1/2 is given as 13 h and the Tmax is 1 to 1.5 h. Moreover, the “greater natriuresis with dapagliflozin” value in [3] (given after one week of bumetanide therapy) stood at 190%. In [3], the “Ca^++” value is recorded as 597 ± 76 mg-wk^−1, the Glucose amounted to 239 ± 20 g-wk^−1, the “K^+” value is 415 ± 24 mmol-wk^−1 and the “Mg^++” value is 548 ± 37 mg-wk^−1. Also, in data set [3], the “Na^+” value was determined as 625 ± 15 mmol-wk^−1 and the Urate is reported as 3382 ± 187 mg-wk^−1.

Consider `Cc1cccc(Nc2ccncc2S(=O)(=O)NC(=O)NC(C)C)c1` [Torsemide], for which the IC50 at hNKCC1a was 6200 nM; at NKCC2, 300 nM; at hNKCC1b it was 8200 nM. Besides, the Bioavailability in data set [4] (in vivo) is given as 80-100%. Moreover, in data set [4] (in vivo), the duration of action was 3 to 5 h. For the same compound, the plasma half-life in data set [4] (unchanged in chronic renal failure) was 3 to 5 h.

Regarding `COC(=O)[C@@H]1CC2=CC(=O)CC[C@]2(C)[C@@]23O[C@@H]2C[C@@]2(C)[C@@H](CC[C@@]24CCC(=O)O4)[C@H]13` [Eplerenone], the half-life in [2] is 4 to 6 h.

As to `OC[C@H]1O[C@@H](c2ccc(F)c(Cc3cc4ccccc4s3)c2)[C@H](O)[C@@H](O)[C@@H]1O` [Ipragliflozin], in [1], the Bioavailability is recorded as 92% and the T1/2 is 15 h.

With `Cc1ccc([C@@H]2O[C@H](CO)[C@@H](O)[C@H](O)[C@H]2O)cc1Cc1ccc(-c2ccc(F)cc2)s1` [Canagliflozin], in [1], the Bioavailability is listed as 65%, the T1/2 was 10 h and the Tmax was 1 to 2 h.

With `NS(=O)(=O)c1cc(C(=O)O)c(NCc2ccco2)cc1Cl` [Furosemide], at NKCC2, the IC50 is 5100 nM. The “reduction of GFR” value in data set [5] is reported as “circa 23%”.

As for `C=C(CC)C(=O)c1ccc(OCC(=O)O)c(Cl)c1Cl` [Ethacrynic acid], the IC50 at NKCC2 was 5100 nM.

As for `NS(=O)(=O)c1cc(-c2nnn[nH]2)c(NCc2cccs2)cc1Cl` [Azosemide], the results for the IC50 at hNKCC1a, at NKCC2 and at hNKCC1b were 250 nM, 3100 nM and 210 nM, respectively.

Turning to `COc1cc2nc(N3CCN(C(=O)c4ccco4)CC3)nc(N)c2cc1OC` [Prazosin], the Oral bioavailability in [6] is reported as 56.9%.

Consider `O=C1CC[C@@]2(O)[C@H]3Cc4ccc(O)c5c4[C@@]2(CCN3CC2CC2)[C@H]1O5` [Naltrexone, 17-(cyclopropylmethyl)-4,5-epoxy-3,14-dihydroxymorphinan-6-one], for which, in data set [7], the fraction metabolized is reported as over 98%.

For `OC[C@H]1O[C@@H](c2ccc(Cl)c(Cc3ccc(O[C@H]4CCOC4)cc3)c2)[C@H](O)[C@@H](O)[C@@H]1O` [Empagliflozin], in data set [1], the Bioavailability is given as 95%, the T1/2 is 13 h and the time to peak (Tmax) is on record as 1.5 h.

Turning to `CCOc1ccc(Cc2cc([C@@H]3O[C@H](SC)[C@@H](O)[C@H](O)[C@H]3O)ccc2Cl)cc1` [Sotagliflozin], in [1], the Bioavailability was 70%, the T1/2 is listed as 2.5 h and the Tmax is on record as 1.9 h.

Regarding `CCOc1ccc(Cc2cc([C@]34OC[C@](CO)(O3)[C@@H](O)[C@H](O)[C@H]4O)ccc2Cl)cc1` [Ertugliflozin], in [1], the Bioavailability is 87%, the T1/2 was 12.5 h and the Tmax was 2 to 3 h.
